Patent US20100130604A1, “USE OF ROSMARINIC ACID IN MANUFACTURE OF MEDICAMENTS FOR TREATING OR PREVENTING HEPATIC AND RENAL DISEASES” (SHANGDONG LUYE NATURAL DRUG RESEARCH AND DEVELOPMENT CO., …, priority 2006, published 2010)

Legend:
[1] = system: rats with diabetic nephropathy; assay: Diabetic nephropathy in rats (left nephrectomy + streptozocin); type: in vivo, Sprague Dawley rats; details: for creatinine: serum
Procedure: After 1 week-long acclimation period, animals were anaesthetised with 10% chloral hydrate (0.35 mL/100 g, i.p.) and nephrectomy was exercised to the left kidney. One week later, a single dose of 1% of streptozocin solution was i.v. injected to all animals at 60 mg/kg. After 72h, blood was collected from eyepit to test blood glucose level with the above-mentioned kit. The model was considered successful when blood glucose level >16.7 mmol/L. When the model is established, 130 rats were randomly divided into 13 groups, with 10 animals in each group, namely, a normal control group, a model group, benzanapril p.o. Group at 10 mg/kg, RA i.v. groups at 2.5 mg/kg, 5 mg/kg, 25 mg/kg, 75 mg/kg, and 150 mg/kg of RA, and RA p.o. groups at 5 mg/kg, 10 mg/kg, 50 mg/kg, 150 mg/kg, and 300 mg/kg of RA. The drugs were administered once every day. Blood was collected from eyepit at week 8 and week 16 to determine serum levels of creatinine and urea nitrogen. Urinary protein excretion within 24 hours was also studied. The animals were sacrificed 24 hours after the last dose and kidney removed for histopathological examination.

[2] = system: CTGF mRNA; assay: RT-PCR detection of CTGF mRNA expression in HSC-T6; type: cell-based; details: for CTGF mRNA expression rate (%): control 98.5
Procedure: Total RNA was extracted from the cell lysate obtained in section 2.3 according the manufacturer's instructions with UNIQ-10 column total RNA extraction kit. A UV spectrophotometer was used to measure the concentration and purity. This was repeated three times and the total RNA concentration was calculated.
Reaction system: 1 μL of RT product; 10 μL of 2×PCR Master; 1 μL of each of sense primer and anti-sense primer; added double distilled water to 20 μL.
Sense primer: 5′-[…]-3′;
Anti-sense primer: 5′-[…]-3′; primer length of 383 bp;
Internal standard GAPDH (Kangcheng Bio-tech Inc.), with sense primer as 5′-[…]-3′, anti-sense primer as 5′-[…]-3′, and length of 452 bp;
Reaction conditions: pre-denature at 94° C. for 2 min, denature at 94° C. for 45 s, anneal at 54.9° C. for 30 s, extend at 72° C. for 60 s, extend at 72° C. for 10 min after 35 cycles and detect with 1.2% agarose gel electrophoresis. Scan with gel image system and calculate the ratio of gray scale between CTGF and GAPDH as an indicator of CTGF expression.
According to the results from the MTT method, groups of 0, 10, and 50 mg/L RA were selected and subjected to RT-PCR.

SMILES: O=C(/C=C/c1ccc(O)c(O)c1)O[C@H](Cc1ccc(O)c(O)c1)C(=O)O [RA, R(+)2-{[3-(3,4-dihydroxylphenyl-(oxo-2-propenyl)oxy]3,4-dihydroxylphenylpropionic acid]}]
- 24 h urinary protein excretion ([1]; 8 weeks, i.v. 2.5 mg/kg): 20.29 ± 2.21 mg/24 h
- Blood glucose ([1]; 8 weeks, i.v. 2.5 mg/kg): 21.23 ± 5.66 mmol/L
- Serum urea nitrogen ([1]; 8 weeks, i.v. 2.5 mg/kg): 18.01 ± 1.62 mg/dL
- 24 h urinary protein excretion ([1]; 8 weeks, i.v. 5 mg/kg): 19.19 ± 2.15 mg/24 h
- Blood glucose ([1]; 8 weeks, i.v. 5 mg/kg): 21.02 ± 6.14 mmol/L
- Serum urea nitrogen ([1]; 8 weeks, i.v. 5 mg/kg): 17.91 ± 1.80 mg/dL
- 24 h urinary protein excretion ([1]; 8 weeks, i.v. 25 mg/kg): 17.59 ± 2.12 mg/24 h
- Blood glucose ([1]; 8 weeks, i.v. 25 mg/kg): 21.15 ± 5.74 mmol/L
- Serum urea nitrogen ([1]; 8 weeks, i.v. 25 mg/kg): 15.42 ± 3.36 mg/dL
- 24 h urinary protein excretion ([1]; 8 weeks, i.v. 75 mg/kg): 16.78 ± 2.52 mg/24 h
- Blood glucose ([1]; 8 weeks, i.v. 75 mg/kg): 21.03 ± 4.74 mmol/L
- Serum urea nitrogen ([1]; 8 weeks, i.v. 75 mg/kg): 14.76 ± 2.19 mg/dL
- 24 h urinary protein excretion ([1]; 8 weeks, i.v. 150 mg/kg): 16.39 ± 2.25 mg/24 h
- Blood glucose ([1]; 8 weeks, i.v. 150 mg/kg): 21.23 ± 5.54 mmol/L
- Serum urea nitrogen ([1]; 8 weeks, i.v. 150 mg/kg): 13.87 ± 1.75 mg/dL
- 24 h urinary protein excretion ([1]; 8 weeks, p.o. 5 mg/kg): 20.59 ± 2.34 mg/24 h
- Blood glucose ([1]; 8 weeks, p.o. 5 mg/kg): 21.23 ± 6.36 mmol/L
- Serum urea nitrogen ([1]; 8 weeks, p.o. 5 mg/kg): 19.37 ± 3.85 mg/dL
- 24 h urinary protein excretion ([1]; 8 weeks, p.o. 10 mg/kg): 19.11 ± 2.19 mg/24 h
- Blood glucose ([1]; 8 weeks, p.o. 10 mg/kg): 20.87 ± 6.55 mmol/L
- Serum urea nitrogen ([1]; 8 weeks, p.o. 10 mg/kg): 17.57 ± 2.70 mg/dL
- 24 h urinary protein excretion ([1]; 8 weeks, p.o. 50 mg/kg): 17.89 ± 2.64 mg/24 h
- Blood glucose ([1]; 8 weeks, p.o. 50 mg/kg): 21.07 ± 5.46 mmol/L
- Serum urea nitrogen ([1]; 8 weeks, p.o. 50 mg/kg): 15.96 ± 1.95 mg/dL
- 24 h urinary protein excretion ([1]; 8 weeks, p.o. 150 mg/kg): 17.18 ± 2.56 mg/24 h
- Blood glucose ([1]; 8 weeks, p.o. 150 mg/kg): 21.32 ± 6.44 mmol/L
- Serum urea nitrogen ([1]; 8 weeks, p.o. 150 mg/kg): 14.76 ± 2.65 mg/dL
- 24 h urinary protein excretion ([1]; 8 weeks, p.o. 300 mg/kg): 16.89 ± 2.75 mg/24 h
- Blood glucose ([1]; 8 weeks, p.o. 300 mg/kg): 20.97 ± 5.54 mmol/L
- Serum urea nitrogen ([1]; 8 weeks, p.o. 300 mg/kg): 14.42 ± 2.90 mg/dL
- 24 h urinary protein excretion ([1]; 16 weeks, i.v. 2.5 mg/kg): 60.96 ± 6.85 mg/24 h
- Blood glucose ([1]; 16 weeks, i.v. 2.5 mg/kg): 22.02 ± 5.34 mmol/L
- Serum urea nitrogen ([1]; 16 weeks, i.v. 2.5 mg/kg): 33.91 ± 3.60 mg/dL
- 24 h urinary protein excretion ([1]; 16 weeks, i.v. 5 mg/kg): 57.28 ± 8.46 mg/24 h
- Blood glucose ([1]; 16 weeks, i.v. 5 mg/kg): 22.15 ± 4.24 mmol/L
- Serum urea nitrogen ([1]; 16 weeks, i.v. 5 mg/kg): 30.42 ± 7.36 mg/dL
- 24 h urinary protein excretion ([1]; 16 weeks, i.v. 25 mg/kg): 55.34 ± 7.67 mg/24 h
- Blood glucose ([1]; 16 weeks, i.v. 25 mg/kg): 22.03 ± 4.59 mmol/L
- Serum urea nitrogen ([1]; 16 weeks, i.v. 25 mg/kg): 26.76 ± 4.19 mg/dL
- 24 h urinary protein excretion ([1]; 16 weeks, i.v. 75 mg/kg): 54.78 ± 7.96 mg/24 h
- Blood glucose ([1]; 16 weeks, i.v. 75 mg/kg): 22.35 ± 7.28 mmol/L
- Serum urea nitrogen ([1]; 16 weeks, i.v. 75 mg/kg): 23.07 ± 3.95 mg/dL
- 24 h urinary protein excretion ([1]; 16 weeks, i.v. 150 mg/kg): 54.28 ± 7.46 mg/24 h
- Blood glucose ([1]; 16 weeks, i.v. 150 mg/kg): 22.23 ± 6.24 mmol/L
- Serum urea nitrogen ([1]; 16 weeks, i.v. 150 mg/kg): 22.57 ± 3.45 mg/dL
- 24 h urinary protein excretion ([1]; 16 weeks, p.o. 5 mg/kg): 65.55 ± 8.71 mg/24 h
- Blood glucose ([1]; 16 weeks, p.o. 5 mg/kg): 22.23 ± 5.66 mmol/L
- Serum urea nitrogen ([1]; 16 weeks, p.o. 5 mg/kg): 39.37 ± 3.85 mg/dL
- 24 h urinary protein excretion ([1]; 16 weeks, p.o. 10 mg/kg): 61.33 ± 6.65 mg/24 h
- Blood glucose ([1]; 16 weeks, p.o. 10 mg/kg): 21.87 ± 5.55 mmol/L
- Serum urea nitrogen ([1]; 16 weeks, p.o. 10 mg/kg): 38.37 ± 3.85 mg/dL
- 24 h urinary protein excretion ([1]; 16 weeks, p.o. 50 mg/kg): 57.28 ± 8.46 mg/24 h
- Blood glucose ([1]; 16 weeks, p.o. 50 mg/kg): 22.07 ± 4.46 mmol/L
- Serum urea nitrogen ([1]; 16 weeks, p.o. 50 mg/kg): 34.57 ± 5.60 mg/dL
- 24 h urinary protein excretion ([1]; 16 weeks, p.o. 150 mg/kg): 56.28 ± 8.76 mg/24 h
- Blood glucose ([1]; 16 weeks, p.o. 150 mg/kg): 21.32 ± 6.34 mmol/L
- Serum urea nitrogen ([1]; 16 weeks, p.o. 150 mg/kg): 28.96 ± 3.95 mg/dL
- 24 h urinary protein excretion ([1]; 16 weeks, p.o. 300 mg/kg): 55.78 ± 9.46 mg/24 h
- Blood glucose ([1]; 16 weeks, p.o. 300 mg/kg): 21.97 ± 5.34 mmol/L
- Serum urea nitrogen ([1]; 16 weeks, p.o. 300 mg/kg): 27.76 ± 5.30 mg/dL
- kidney pathological examination ([1]; RA treated groups vs model group): fewer lesions than the model group in a dose-dependent manner
- creatinine ([1]; 8 weeks, i.v. 2.5 mg/kg): 0.91 ± 0.12 mg/dL
- creatinine ([1]; 8 weeks, i.v. 5 mg/kg): 0.90 ± 0.09 mg/dL
- creatinine ([1]; 8 weeks, i.v. 25 mg/kg): 0.75 ± 0.18 mg/dL
- creatinine ([1]; 8 weeks, i.v. 75 mg/kg): 0.72 ± 0.15 mg/dL
- creatinine ([1]; 8 weeks, i.v. 150 mg/kg): 0.69 ± 0.11 mg/dL
- creatinine ([1]; 8 weeks, p.o. 5 mg/kg): 0.96 ± 0.09 mg/dL
- creatinine ([1]; 8 weeks, p.o. 10 mg/kg): 0.88 ± 0.15 mg/dL
- creatinine ([1]; 8 weeks, p.o. 50 mg/kg): 0.77 ± 0.13 mg/dL
- creatinine ([1]; 8 weeks, p.o. 150 mg/kg): 0.75 ± 0.12 mg/dL
- creatinine ([1]; 8 weeks, p.o. 300 mg/kg): 1.40 ± 0.28 mg/dL
- creatinine ([1]; 16 weeks, i.v. 2.5 mg/kg): 1.60 ± 0.18 mg/dL
- creatinine ([1]; 16 weeks, i.v. 5 mg/kg): 1.52 ± 0.37 mg/dL
- creatinine ([1]; 16 weeks, i.v. 25 mg/kg): 1.32 ± 0.28 mg/dL
- creatinine ([1]; 16 weeks, i.v. 75 mg/kg): 1.26 ± 0.28 mg/dL
- creatinine ([1]; 16 weeks, i.v. 150 mg/kg): 1.20 ± 0.22 mg/dL
- creatinine ([1]; 16 weeks, p.o. 5 mg/kg): 1.97 ± 0.19 mg/dL
- creatinine ([1]; 16 weeks, p.o. 10 mg/kg): 1.92 ± 0.19 mg/dL
- creatinine ([1]; 16 weeks, p.o. 50 mg/kg): 1.77 ± 0.28 mg/dL
- creatinine ([1]; 16 weeks, p.o. 150 mg/kg): 1.53 ± 0.28 mg/dL
- creatinine ([1]; 16 weeks, p.o. 300 mg/kg): 1.50 ± 0.26 mg/dL
- serum creatinine, urea nitrogen, 24-hour urinary protein excretion ([1]; week 8 and week 16, i.v. 2.5, 5, 25, 75, 150 mg/kg, p.o. 5, 10, 50, 150, 300 mg/kg): can all significantly reduce serum creatinine and urea nitrogen levels as well as 24-hour urinary protein excretion
- CTGF mRNA expression rate (%) ([2]; 10 mg/L): 71.2 ± 8.7 %
- CTGF mRNA expression rate (%) ([2]; 50 mg/L): 63.2 ± 9.2 %
- CTGF mRNA expression in HSC-T6 ([2]; 10 and 50 mg/L): significant inhibition on CTGF mRNA expression
